In patent publication US9695192B2, “Fused heterocyclic compounds as ion channel modulators” (GILEAD SCIENCES, INC., priority 2011, dated 2017):

Biological target: T1, hNav1.2 sodium channel (Homo sapiens, UniProt Q99250)
T1 construct: expressed in transfected cells
Experiment: Nav1.2 use-dependent block, whole-cell voltage clamp, 10 Hz pulse train
Format: cell-based
Conditions: Chantest conditions, read-out: NAV1.2 UDB-10 HZ % Inhibition
Source text: Wild-type (WT) cDNA stably transfected in Chinese hamster ovary (CHO) cells is used to record INa. Unless otherwise noted, all reagents are purchased from Sigma-Aldrich (St Louis, Mo., U.S.A.).
Whole-cell voltage-clamp recordings are used to measure the biophysical properties of WT. Briefly, the pipette solution consists of (in mM) 110 CsF, 10 NaF, 20 CsCl, 2 EGTA, 10 HEPES, with a pH of 7.35 and osmolarity of 300 mOsmol/kg. The bath (control) solution contains in (mM): 145 NaCl, 4 KCl, 1.8 CaCl2, 1 MgCl2, 10 dextrose, 10 HEPES, with a pH of 7.35 and osmolarity of 310 mOsmol/kg. Cells are allowed to stabilize for 10 min after establishment of the whole-cell configuration before current is measured. Series resistance is compensated 90% to assure that the command potential is reached within microseconds with a voltage error<2 mV. Leak currents are subtracted by using an online P/4 procedure and all currents are low-pass Bessel filtered at 5 kHz and digitized at 50 kHz.
Tonic block of peak current is measured using a step to −10 mV (20 ms) from a holding potential of −120 mV (0.2 Hz). Use-dependent block of peak current is measured during pulse number 300 of a pulse train (−10 mV, 5 ms, 300 pulses, 10 Hz or 25 Hz) from a holding potential of −120 mV. Currents are then normalized to the peak current recorded in response to the first pulse in each frequency train. For tonic block studies, peak current is evaluated in response to a 20 ms depolarization to −10 mV (0.2 Hz). Two sequential pulse train stimulations are averaged to obtain mean current traces for each recording condition, which are then used for offline subtraction and analysis.
A stock solution of 10 mM compound of Formula I is prepared in 0.1 M HCl or DMSO. A fresh dilution of the compound of Formula I in the bath solution is prepared every experimental day and the pH is readjusted to 7.35 as necessary. The final DMSO concentration was kept at 0.1% in all solutions. Direct application of the perfusion solution to the clamped cell is achieved using the Perfusion Pencil system (Automate, Berkeley, Calif.). Direct cell perfusion is driven by gravity at a flow rate of 350 μL/min using a 250 micron tip. This system sequesters the clamped cell within a perfusion stream and enables complete solution exchange within 1 second. The clamped cell is perfused continuously starting immediately after establishing the whole-cell configuration. Control currents are measured during control solution perfusion.
Solutions are perfused for three minutes prior to current recordings to allow equilibrium (tonic) drug block. Tonic block of peak currents is measured from this steady-state condition. Three sequential current traces are averaged to obtain a mean current for each recording. The mean current traces are utilized for offline analysis.

T1 sequence (Q99250 whole entry): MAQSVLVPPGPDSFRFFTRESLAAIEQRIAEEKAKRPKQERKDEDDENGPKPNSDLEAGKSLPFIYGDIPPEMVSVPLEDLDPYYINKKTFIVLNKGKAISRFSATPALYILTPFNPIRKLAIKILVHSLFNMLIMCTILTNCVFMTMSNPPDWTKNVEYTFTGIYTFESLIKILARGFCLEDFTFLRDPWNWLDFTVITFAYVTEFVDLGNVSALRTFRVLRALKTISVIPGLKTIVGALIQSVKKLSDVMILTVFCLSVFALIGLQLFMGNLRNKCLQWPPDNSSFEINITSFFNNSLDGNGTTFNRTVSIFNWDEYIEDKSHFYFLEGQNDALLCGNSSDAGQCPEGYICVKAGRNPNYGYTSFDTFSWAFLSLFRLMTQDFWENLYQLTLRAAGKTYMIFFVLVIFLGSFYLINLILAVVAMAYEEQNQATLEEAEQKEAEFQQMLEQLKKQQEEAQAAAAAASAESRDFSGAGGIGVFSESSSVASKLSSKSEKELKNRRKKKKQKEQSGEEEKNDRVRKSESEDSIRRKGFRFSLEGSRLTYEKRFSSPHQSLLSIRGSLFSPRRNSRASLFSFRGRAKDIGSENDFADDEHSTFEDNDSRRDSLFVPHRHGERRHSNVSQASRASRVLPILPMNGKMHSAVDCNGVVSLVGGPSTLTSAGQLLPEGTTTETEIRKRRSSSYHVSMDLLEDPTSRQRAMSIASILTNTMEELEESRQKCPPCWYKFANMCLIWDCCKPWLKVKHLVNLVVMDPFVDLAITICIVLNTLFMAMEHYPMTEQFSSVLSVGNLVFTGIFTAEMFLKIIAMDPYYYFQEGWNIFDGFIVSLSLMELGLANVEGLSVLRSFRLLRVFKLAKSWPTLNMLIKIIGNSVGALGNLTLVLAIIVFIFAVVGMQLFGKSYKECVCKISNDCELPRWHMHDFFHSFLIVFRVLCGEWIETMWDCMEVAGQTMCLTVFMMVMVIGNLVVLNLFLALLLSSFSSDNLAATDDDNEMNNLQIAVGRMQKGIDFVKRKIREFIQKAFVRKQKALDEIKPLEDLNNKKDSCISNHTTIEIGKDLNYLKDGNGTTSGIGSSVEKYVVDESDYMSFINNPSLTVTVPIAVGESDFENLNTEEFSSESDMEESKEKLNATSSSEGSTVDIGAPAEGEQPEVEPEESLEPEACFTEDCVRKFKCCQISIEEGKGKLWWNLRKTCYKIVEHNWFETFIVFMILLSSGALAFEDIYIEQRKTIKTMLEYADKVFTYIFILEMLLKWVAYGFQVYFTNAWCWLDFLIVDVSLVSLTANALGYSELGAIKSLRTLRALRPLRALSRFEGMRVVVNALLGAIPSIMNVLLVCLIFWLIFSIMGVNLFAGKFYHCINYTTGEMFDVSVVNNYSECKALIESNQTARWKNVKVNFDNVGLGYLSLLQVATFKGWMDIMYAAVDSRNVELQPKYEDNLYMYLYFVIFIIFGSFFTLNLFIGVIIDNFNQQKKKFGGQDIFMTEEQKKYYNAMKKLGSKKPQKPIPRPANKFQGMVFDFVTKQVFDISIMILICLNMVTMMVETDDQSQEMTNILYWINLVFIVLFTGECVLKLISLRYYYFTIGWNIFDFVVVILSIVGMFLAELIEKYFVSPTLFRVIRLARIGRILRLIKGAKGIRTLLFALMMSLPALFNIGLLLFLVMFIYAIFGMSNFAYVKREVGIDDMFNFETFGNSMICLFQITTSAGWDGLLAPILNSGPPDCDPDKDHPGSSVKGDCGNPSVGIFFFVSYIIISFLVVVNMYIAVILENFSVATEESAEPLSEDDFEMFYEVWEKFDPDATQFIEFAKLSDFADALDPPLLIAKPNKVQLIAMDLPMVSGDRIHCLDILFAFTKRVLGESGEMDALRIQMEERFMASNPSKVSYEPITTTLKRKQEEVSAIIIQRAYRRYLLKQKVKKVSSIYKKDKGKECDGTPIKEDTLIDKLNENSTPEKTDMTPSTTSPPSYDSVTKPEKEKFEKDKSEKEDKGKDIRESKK

**Q.** With `FC(F)(F)c1ccc(-c2ccc3c(c2)C(NCc2ccccc2)=NCCO3)cc1` [II-2, N-benzyl-7-(4-(trifluoromethyl)phenyl)-2,3-dihydrobenzo[f][1,4]oxazepin-5-amine] as the molecule, how does the inhibition at 1 µM read?
**A.** Its inhibition at 1 µM is 24%.
